Measured values as given in US20070077607A1, “Novel screening method” (priority 2003, published 2007).
Read-outs that look alike come from different tables or passages of the source.

Assays:
HOB cells = experiment: Cell adhesion assay (cell attachment and cell spreading), HOB cells; type: cell-based, human; settings: for inhibition at 5 µM: Homo sapiens
Method: To evaluate cell attachment and cell spreading exponentially growing cells were detached from substratum by trypsinisation (0.25% (v/v) trypsin in 5 mM EDTA), collected into medium containing a ˜7% (V/V) final concentration of FCS, washed twice with medium without serum and then plated (2×10^4cells/well) onto FN-coated 96-well plates with and without further immobilisation of tTG. After a maximum of 20-minute incubation (to minimise the effect of any endogenous secreted proteins) at 37° C. in a 5% CO2 atmosphere, cells were fixed in 3.7% (w/v) paraformaldehyde in PBS pH 7.4, permeabilised in 0.1% (v/v) Triton X-100 and stained with May Grunwald and Giemsa stain (Jones et al 1997, Verderio et al. 2000). In some cases cells were pre-treated for 15 hours with 1 mM cycloheximide before plating to rule out any effects of endogenous secreted adhesion molecules. Digital images of three non-overlapping fields covering the central portion of each well was captured using a video digital camera (Olympus DP10) and examined using the Image Analysis programme Scion Image (National Institute of Health, USA). A total of at least nine images of separate fields per sample were examined for a total of at least 900 cells in the FN control. The number of cell particles in each field was measured by thresholding and particle analysis setting a minimum particle size of 50 pixels. Spread cells were analysed and quantified by “density slicing” and particle analysis.
Adhesion of cells to FN was decreased by pre-incubation with RGD synthetic peptide (50 μg/ml, ˜75 ∝M, 100 μg/ml ˜150 μM, or 200 μg/ml ˜300 μM) or function blocking anti-integrin antibodies 40 μg/ml anti-β1 integrin (JB1A), 30 μg/ml anti-α5 integrin (P1D6). Detached cells (as described above) were pre-incubated in suspension (2×10^5cells/ml) in serum-free medium containing either RGD peptide or anti-integrins antibodies at 37° C. for 10 minutes in 5% CO2 atmosphere, and then seeded in the presence of the peptides.

guinea pig liver tTG = target: T1, guinea pig liver tTG (Cavia cutleri, UniProt P08587); experiment: tTG cross-linking activity (incorporation of biotinylated cadaverine into FN); type: biochemical
T1 construct: Purified guinea pig liver tTG was either obtained by Sigma-Aldrich or purified in the laboratory; tissue Sigma-Aldrich (or purified in the laboratory according to Leblanc et al., 1999); host or cells: guinea pig liver
T1 sequence (P08587 2-690): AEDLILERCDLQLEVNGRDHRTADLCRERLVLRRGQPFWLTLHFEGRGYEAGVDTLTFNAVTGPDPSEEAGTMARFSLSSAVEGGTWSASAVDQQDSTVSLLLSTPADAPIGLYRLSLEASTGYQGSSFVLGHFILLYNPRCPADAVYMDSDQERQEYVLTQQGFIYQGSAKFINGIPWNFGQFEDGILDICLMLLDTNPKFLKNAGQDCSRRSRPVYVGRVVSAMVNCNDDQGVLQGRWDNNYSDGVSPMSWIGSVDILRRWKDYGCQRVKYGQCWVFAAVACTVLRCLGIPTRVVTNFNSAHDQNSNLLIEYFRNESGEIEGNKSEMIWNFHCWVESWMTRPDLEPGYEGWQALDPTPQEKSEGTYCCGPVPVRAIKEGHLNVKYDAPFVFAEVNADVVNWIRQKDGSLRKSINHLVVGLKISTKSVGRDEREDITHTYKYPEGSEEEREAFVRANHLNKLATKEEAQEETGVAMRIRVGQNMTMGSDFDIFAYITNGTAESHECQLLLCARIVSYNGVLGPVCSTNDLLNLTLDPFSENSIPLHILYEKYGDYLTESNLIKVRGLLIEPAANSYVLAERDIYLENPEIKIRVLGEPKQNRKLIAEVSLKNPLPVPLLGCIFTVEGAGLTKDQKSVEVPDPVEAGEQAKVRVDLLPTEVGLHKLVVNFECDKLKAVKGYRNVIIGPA
Method: (§1) The wells of a 96-well plate (0.32 cm^2) were coated with human plasma FN (5 μg/ml) in 50 mM Tris-HCl, pH 7.4, […], by incubation at 4° C. for approximately 15 h. For tTG immobilisation, the FN solution was removed, the wells were washed once in 50 mM Tris-HCl, pH 7.4 and then incubated with purified guinea pig liver tTG (20 μg/ml) in PBS pH 7.4 containing 2 mM EDTA pH 7.4, 100 μl/well. For control wells coated with tTG only, the tTG solution was added directly to tissue culture plastic (TCP). After one hour-incubation at 37° C., the tTG solution was removed and wells were washed once in 50 mM Tris-HCl, pH 7.4 and once in serum-free culture medium before cell seeding. The presence of tTG immobilised on FN was confirmed by an ELISA-type assay (Jones et al. 1997), using Cub 74 (1:5000). Absorbance values were read in an ELISA plate reader at 450 nm (Tecan Spectrafluor). Confirmation that the immobilised tTG was still active as a Ca^2+-dependent ε-(γ-glutamyl)lysine crosslinker was gained by measuring tTG activity with a microtitre assay that is based on the incorporation of biotinylated cadaverine into FN in the presence of 5 mM CaCl2 and 5 mM DTT (Jones et al. 1997) and compared with the activity of free tTG standard. To confirm that the cross-linking activity was Ca^2+-dependent, 5 mM CaCl2 was replaced with 5 mM EDTA pH 7.4. Absorbance values were read at 450 nm and data were expressed as absorbance value with Ca^2+ in the reaction buffer minus background absorbance value with EDTA in the reaction buffer. Similarly to tTG, FN antigen was detected by using a modified ELISA based on a rabbit polyclonal anti-FN antibody (1/5000) followed by peroxidase-labelled anti-rabbit IgG (1/5000).

[1] = target: T2, tTG activity found at the HOB cell-surface (Homo sapiens, UniProt P21980); experiment: tTG activity at the HOB cell-surface; type: cell-based; settings: R283 treatment; data not shown
T2 construct: the low tTG activity found at the HOB cell-surface; endogenous in cells; host or cells: primary human osteoblasts (HOB)
T2 sequence (P21980 1-687): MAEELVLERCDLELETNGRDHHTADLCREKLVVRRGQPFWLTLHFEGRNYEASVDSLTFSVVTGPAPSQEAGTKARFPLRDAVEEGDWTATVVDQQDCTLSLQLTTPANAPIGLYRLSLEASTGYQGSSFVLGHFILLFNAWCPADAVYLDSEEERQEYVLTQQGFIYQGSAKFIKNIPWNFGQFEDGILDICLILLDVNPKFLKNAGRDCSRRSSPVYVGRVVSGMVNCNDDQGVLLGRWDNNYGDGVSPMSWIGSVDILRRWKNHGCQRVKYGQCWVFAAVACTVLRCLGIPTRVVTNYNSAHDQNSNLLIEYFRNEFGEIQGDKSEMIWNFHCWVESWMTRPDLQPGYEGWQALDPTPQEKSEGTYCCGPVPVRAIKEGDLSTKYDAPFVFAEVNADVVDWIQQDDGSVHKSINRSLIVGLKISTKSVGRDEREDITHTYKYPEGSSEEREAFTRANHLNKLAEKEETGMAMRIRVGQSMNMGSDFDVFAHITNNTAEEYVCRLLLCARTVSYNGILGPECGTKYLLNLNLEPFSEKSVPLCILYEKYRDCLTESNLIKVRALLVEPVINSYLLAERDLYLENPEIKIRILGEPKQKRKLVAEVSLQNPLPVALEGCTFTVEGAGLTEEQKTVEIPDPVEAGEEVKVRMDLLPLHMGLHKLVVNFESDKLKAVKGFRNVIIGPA

human plasma FN = experiment: ELISA-type assay of tTG bound to immobilised FN; type: binding; settings: 1 mM GTP-γS; ELISA using Cub 74
Method: as §1, with “Confirmation that the immobilised tTG was still active as a Ca^2+-dependent ε-(γ-glutamyl)lysine crosslinker was gained by measuring tTG activity with a microtitre assay that is based on the incorporation of biotinylated cadaverine into FN in the presence of 5 mM CaCl2 and 5 mM DTT (Jones et al. 1997) and compared with the activity of free tTG standard. To confirm that the cross-linking activity was Ca^2+-dependent, 5 mM CaCl2 was replaced with 5 mM EDTA pH 7.4.” left out

[2] = enzyme pre-treatment 15 mU/ml, RGD 100 μg/ml

## chondroitinase ABC
HOB cells; chondroitinase ABC 15 mU/ml
  cell adhesion to FN: no significant affect
HOB cells; [2]
  RGD-independent cell attachment on tTG-FN: only marginally affected
  RGD-independent cell spreading on tTG-FN: did not significantly alter

## CC(=O)CSc1n(C)cc[n+]1C.[Cl-] [R283]
HOB cells; 100 μM R283
  cell adhesion on FN bound to R283-inactivated tTG relative to adhesion on FN with RGD peptide: twice
HOB cells; 100 μM R283, with or without RGD peptide
  cell adhesion on FN bound to R283-inactivated tTG versus without R283: not significantly different
Guinea pig liver tTG; 100 μM R283
  transamidating activity of immobilised tTG: completely blocked
[1]
  tTG activity at the HOB cell-surface: inhibited to negligible values

## Cn1c2ccccc2c2c3c(c4c5ccccc5n(CCC#N)c4c21)CNC3=O [GO6976]
HOB cells; 5 μM GO6976, FN + RGD
  effect on inhibition of attachment and spreading mediated by the RGD peptide: significantly augment the inhibition
HOB cells; 5 μM GO6976, RGD peptide, read-out: inhibition of attachment mediated by the tTG-FN complex
  inhibition at 5 µM: > 90%
HOB cells; 5 μM GO6976, RGD peptide, read-out: inhibition of spreading mediated by the tTG-FN complex
  inhibition at 5 µM: ~85%
HOB cells; 5 μM GO6976, control peptide RAD, read-out: inhibition of attachment on FN
  inhibition at 5 µM: ~30%
HOB cells; 5 μM GO6976, control peptide RAD, read-out: inhibition of spreading on FN
  inhibition at 5 µM: ~30%

## GRADSP [RAD peptide]
HOB cells; 200 μg/ml RAD control peptide
  cell attachment on FN compared to untreated cells (RAD 0): reduction in cell attachment

## Nc1nc2c(ncn2[C@@H]2O[C@H](COP(=O)(O)OP(=O)(O)OP(O)(O)=S)[C@@H](O)[C@H]2O)c(=O)[nH]1 [GTP-γS]
Human plasma FN
  level of tTG immobilised on FN: did not significantly alter
HOB cells; 1 mM GTP-γS, RGD 100 μg/ml
  RGD-independent cell attachment and spreading mediated by tTG-FN: partially but significantly reduced
Guinea pig liver tTG; GTP-γS, DMEM with reducing agent, data not shown
  transamidating activity of FN-bound tTG: acts as transamidating inhibitor

## O[C@@H](CS)[C@@H](O)CS [DTT]
Guinea pig liver tTG; DMEM with 5 mM DTT versus DMEM
  increase of transamidating activity of FN-bound tTG: approx 6 fold
